The source of these data is patent publication US20030138375A1, “Individualization of therapy with Alzheimer's disease agents” (priority 2001, published 2003).

Counter-ions that a name gives are not always drawn. Marks after values point to notes of the source that are not given here.

For data set [1], the system named is individuals with mild to moderate Alzheimer's disease. The note with it: cited from earlier work.
For data set [2], the system named is AAMU-Ab. The data set is described as follows: Competitive antigen ELISA, cross-reactivity of AAMU-Ab. In kind it is binding, rabbit. The note with it: 0 = absence of inhibition or inhibition no higher than 40% at 5×10^−3 M.
Description: Buffers and water without additives are filtered through millipore filters and kept for 1 week. BSA, antibodies, Tween™ 20 and horse radish peroxidase conjugates are added to these buffers and water just prior to use. Urine samples are usually collected 4 hours after drinking a cup of coffee (instant or brewed with approximately 100 mg of caffeine per cup) and stored at −80° C. The urine samples are diluted 10 times with sodium phosphate buffer (620 mosm, pH 7.50) and are subsequently diluted with water to give concentrations of AAMU and 1X no higher than 3×10^−6 M in the ELISA. All the pipettings are done with an eight-channel pipette, except those of the antibody and sample solutions. Starting with the last well, 100 μL of a carbonate buffer (100 mM, pH 9.6) containing 2.5 μg mL^−1 antibodies are added to each well. After 90 min. at room temperature, the wells are washed three times with 100 mL of TPB: isotonic sodium phosphate buffer (310 mosm, pH 7.50) containing 0.05% Tween™ 20.
After the initial wash, unoccupied sites are blocked by incubation for 90 min. at room temperature with 100 μL TBP containing 3% BSA. The wells are washed four times with 100 μL TPB. […] The microplate is gently shaken with an orbital shaker at room temperature for 3-4 hours. The wells are washed three times with 100 μL TPB containing 1% BSA and three times with water containing 0.05% Tween™ 20. […]
For data set [3] the following is noted: cited from earlier work.

With `Nc1c2c(nc3ccccc13)CCCC2` [Tacrine], in data set [1] (40 mg four times daily, over 12 weeks), the “improvement in cognitive function on the ADAS-Cog” value is “about 2 points”. The “persons who had to discontinue the drug due to side effects” value in data set [1] (human, in vivo) is “up to half”.
Regarding `O=c1[nH]c(=O)c2[nH]cnc2[nH]1` [Xanthine], the “% Cross-Reaction AAMU-Ab” value in data set [2] was 0^a %.
For `COc1cc2c(cc1O)C(=O)C(CC1CCN(Cc3ccccc3)CC1)C2` (stereo not drawn) [6-O-desmethyl donepezil], in data set [3] (14C-labeled donepezil), the “plasma radioactivity, expressed as a percent of the administered dose” value is recorded as 11%. Also, the “plasma concentration relative to donepezil” value in data set [3] (in vivo) is on record as “about 20%”.
As for `COc1cc2c(cc1OC)C(=O)C(CC1CCN(Cc3ccccc3)CC1)C2` (racemic) [Donepezil, (±)-2,3-dihydro-5,6-dimethoxy-2-[[1-(phenylmethyl)-4-piperidinyl]methyl] -1H-inden-1-onehydrochloride], the “effect size on the ADAS-Cog vs placebo” value in data set [1] (5 mg or 10 mg per day, over 24 weeks) is reported as “about 3 points”.
